Assay results published in the NIST ThermoML archive (doi:10.1021/je800110r).
± gives the expanded uncertainty stated by the source.

Settings: Liquid, Vibrating tube method

SMILES: CCCCCCCCCC [decane]
- mass density (313.15 K, 25586 kPa): 734.5 ± 2.1 kg/m3
- mass density (313.15 K, 25902 kPa): 734.7 ± 2.1 kg/m3
- mass density (313.15 K, 25935 kPa): 734.7 ± 2.1 kg/m3
- mass density (313.15 K, 25969 kPa): 734.6 ± 2.1 kg/m3
- mass density (313.15 K, 25993 kPa): 734.9 ± 2.1 kg/m3
- mass density (313.15 K, 26027 kPa): 734.7 ± 2.1 kg/m3
- mass density (313.15 K, 26065 kPa): 734.7 ± 2.1 kg/m3
- mass density (313.15 K, 26104 kPa): 734.9 ± 2.1 kg/m3
- mass density (313.15 K, 26144 kPa): 735 ± 2.1 kg/m3
- mass density (313.15 K, 26173 kPa): 734.9 ± 2.1 kg/m3
- mass density (313.15 K, 26208 kPa): 734.9 ± 2.1 kg/m3
- mass density (313.15 K, 26233 kPa): 734.9 ± 2.1 kg/m3
- mass density (313.15 K, 26272 kPa): 735 ± 2.1 kg/m3
- mass density (313.15 K, 26306 kPa): 735 ± 2.1 kg/m3
- mass density (313.15 K, 26341 kPa): 735 ± 2.1 kg/m3
- mass density (313.15 K, 26370 kPa): 735.1 ± 2.1 kg/m3
- mass density (313.15 K, 26410 kPa): 735 ± 2.1 kg/m3
- mass density (313.15 K, 26440 kPa): 735.2 ± 2.1 kg/m3
- mass density (313.15 K, 26475 kPa): 735.2 ± 2.1 kg/m3
- mass density (313.15 K, 26510 kPa): 735.1 ± 2.1 kg/m3
- mass density (313.15 K, 26557 kPa): 735.1 ± 2.1 kg/m3
- mass density (313.15 K, 26582 kPa): 735.1 ± 2.1 kg/m3
- mass density (313.15 K, 26614 kPa): 735.3 ± 2.1 kg/m3
- mass density (313.15 K, 26655 kPa): 735.3 ± 2.1 kg/m3
- mass density (313.15 K, 26690 kPa): 735.2 ± 2.1 kg/m3
- mass density (313.15 K, 26722 kPa): 735.3 ± 2.1 kg/m3
- mass density (313.15 K, 26763 kPa): 735.3 ± 2.1 kg/m3
- mass density (313.15 K, 26799 kPa): 735.4 ± 2.1 kg/m3
- mass density (313.15 K, 26842 kPa): 735.3 ± 2.1 kg/m3
- mass density (313.15 K, 26874 kPa): 735.3 ± 2.1 kg/m3
- mass density (313.15 K, 26911 kPa): 735.5 ± 2.1 kg/m3
- mass density (313.15 K, 26941 kPa): 735.5 ± 2.1 kg/m3
- mass density (313.15 K, 26969 kPa): 735.5 ± 2.1 kg/m3
- mass density (313.15 K, 26998 kPa): 735.6 ± 2.1 kg/m3
- mass density (313.15 K, 27035 kPa): 735.4 ± 2.1 kg/m3
- mass density (313.15 K, 27058 kPa): 735.5 ± 2.1 kg/m3
- mass density (313.15 K, 27874 kPa): 736 ± 2.1 kg/m3
- mass density (313.15 K, 27972 kPa): 736 ± 2.1 kg/m3
- mass density (313.15 K, 28011 kPa): 736.2 ± 2.1 kg/m3
- mass density (313.15 K, 28036 kPa): 736 ± 2.1 kg/m3
- mass density (313.15 K, 28071 kPa): 736.1 ± 2.1 kg/m3
- mass density (313.15 K, 28101 kPa): 736.2 ± 2.1 kg/m3
- mass density (313.15 K, 28131 kPa): 736.2 ± 2.1 kg/m3
- mass density (313.15 K, 28162 kPa): 736.3 ± 2.1 kg/m3
- mass density (313.15 K, 28202 kPa): 736.3 ± 2.1 kg/m3
- mass density (313.15 K, 28237 kPa): 736.3 ± 2.1 kg/m3
- mass density (313.15 K, 28272 kPa): 736.3 ± 2.1 kg/m3
- mass density (313.15 K, 28297 kPa): 736.3 ± 2.1 kg/m3
- mass density (313.15 K, 28327 kPa): 736.3 ± 2.1 kg/m3
- mass density (313.15 K, 28372 kPa): 736.4 ± 2.1 kg/m3
- mass density (313.15 K, 28403 kPa): 736.4 ± 2.1 kg/m3
- mass density (313.15 K, 28449 kPa): 736.5 ± 2.1 kg/m3
- mass density (313.15 K, 28480 kPa): 736.5 ± 2.1 kg/m3
- mass density (313.15 K, 28515 kPa): 736.4 ± 2.1 kg/m3
- mass density (313.15 K, 28542 kPa): 736.5 ± 2.1 kg/m3
- mass density (313.15 K, 28578 kPa): 736.5 ± 2.1 kg/m3
- mass density (313.15 K, 28619 kPa): 736.5 ± 2.1 kg/m3
- mass density (313.15 K, 28645 kPa): 736.5 ± 2.1 kg/m3
- mass density (313.15 K, 28692 kPa): 736.6 ± 2.1 kg/m3
- mass density (313.15 K, 28723 kPa): 736.7 ± 2.1 kg/m3
- mass density (313.15 K, 28750 kPa): 736.7 ± 2.1 kg/m3
- mass density (313.15 K, 28791 kPa): 736.7 ± 2.1 kg/m3
- mass density (313.15 K, 28828 kPa): 736.6 ± 2.1 kg/m3
- mass density (313.15 K, 28860 kPa): 736.8 ± 2.1 kg/m3
- mass density (313.15 K, 28902 kPa): 736.7 ± 2.1 kg/m3
- mass density (313.15 K, 28945 kPa): 736.8 ± 2.1 kg/m3
- mass density (313.15 K, 28971 kPa): 736.8 ± 2.1 kg/m3
- mass density (313.15 K, 29019 kPa): 736.8 ± 2.1 kg/m3
- mass density (313.15 K, 29061 kPa): 736.9 ± 2.1 kg/m3
- mass density (313.15 K, 29168 kPa): 737 ± 2.1 kg/m3
- mass density (313.15 K, 30647 kPa): 737.9 ± 2.1 kg/m3
- mass density (313.15 K, 30676 kPa): 738 ± 2.1 kg/m3
- mass density (313.15 K, 30710 kPa): 737.9 ± 2.1 kg/m3
- mass density (313.15 K, 30738 kPa): 738 ± 2.1 kg/m3
- mass density (313.15 K, 30777 kPa): 738 ± 2.1 kg/m3
- mass density (313.15 K, 30816 kPa): 738.1 ± 2.1 kg/m3
- mass density (313.15 K, 30856 kPa): 738.1 ± 2.1 kg/m3
- mass density (313.15 K, 30889 kPa): 738.1 ± 2.1 kg/m3
- mass density (313.15 K, 30929 kPa): 738 ± 2.1 kg/m3
- mass density (313.15 K, 30974 kPa): 738.1 ± 2.1 kg/m3
- mass density (313.15 K, 31089 kPa): 738.2 ± 2.1 kg/m3
- mass density (313.15 K, 31432 kPa): 738.4 ± 2.1 kg/m3
- mass density (313.15 K, 31467 kPa): 738.4 ± 2.1 kg/m3
- mass density (313.15 K, 31515 kPa): 738.4 ± 2.1 kg/m3
- mass density (313.15 K, 31562 kPa): 738.5 ± 2.1 kg/m3
- mass density (313.15 K, 31610 kPa): 738.4 ± 2.1 kg/m3
- mass density (313.15 K, 31646 kPa): 738.6 ± 2.1 kg/m3
- mass density (313.15 K, 31694 kPa): 738.6 ± 2.1 kg/m3
- mass density (313.15 K, 31736 kPa): 738.6 ± 2.1 kg/m3
- mass density (313.15 K, 31766 kPa): 738.4 ± 2.1 kg/m3
- mass density (313.15 K, 31815 kPa): 738.6 ± 2.1 kg/m3
- mass density (313.15 K, 31856 kPa): 738.6 ± 2.1 kg/m3
- mass density (313.15 K, 31901 kPa): 738.7 ± 2.1 kg/m3
- mass density (313.15 K, 31947 kPa): 738.7 ± 2.1 kg/m3
- mass density (313.15 K, 31981 kPa): 738.7 ± 2.1 kg/m3
- mass density (313.15 K, 32023 kPa): 738.8 ± 2.1 kg/m3
- mass density (313.15 K, 32070 kPa): 738.8 ± 2.1 kg/m3
- mass density (313.15 K, 32100 kPa): 738.9 ± 2.1 kg/m3
- mass density (313.15 K, 32135 kPa): 738.9 ± 2.1 kg/m3
- mass density (313.15 K, 32176 kPa): 738.9 ± 2.1 kg/m3
- mass density (313.15 K, 32213 kPa): 738.9 ± 2.1 kg/m3
- mass density (313.15 K, 32253 kPa): 738.9 ± 2.1 kg/m3
- mass density (313.15 K, 32294 kPa): 738.9 ± 2.1 kg/m3
- mass density (313.15 K, 32345 kPa): 739 ± 2.1 kg/m3
- mass density (313.15 K, 32379 kPa): 739 ± 2.1 kg/m3
- mass density (313.15 K, 32413 kPa): 739 ± 2.1 kg/m3
- mass density (313.15 K, 32459 kPa): 739.1 ± 2.1 kg/m3
- mass density (313.15 K, 32491 kPa): 739.1 ± 2.1 kg/m3
- mass density (313.15 K, 32528 kPa): 739.1 ± 2.1 kg/m3
- mass density (313.15 K, 32561 kPa): 739.1 ± 2.1 kg/m3
- mass density (313.15 K, 32592 kPa): 739.3 ± 2.1 kg/m3
- mass density (313.15 K, 32633 kPa): 739.1 ± 2.1 kg/m3
- mass density (313.15 K, 32666 kPa): 739.2 ± 2.1 kg/m3
- mass density (313.15 K, 32704 kPa): 739.3 ± 2.1 kg/m3
- mass density (313.15 K, 32737 kPa): 739.3 ± 2.1 kg/m3
- mass density (313.15 K, 32770 kPa): 739.3 ± 2.1 kg/m3
- mass density (313.16 K, 339 kPa): 714.8 ± 2 kg/m3
- mass density (313.16 K, 365 kPa): 714.9 ± 2 kg/m3
- mass density (313.16 K, 391 kPa): 715 ± 2 kg/m3
- mass density (313.16 K, 423 kPa): 715 ± 2 kg/m3
- mass density (313.16 K, 450 kPa): 714.9 ± 2 kg/m3
- mass density (313.16 K, 478 kPa): 715 ± 2 kg/m3
- mass density (313.16 K, 508 kPa): 715 ± 2 kg/m3
- mass density (313.16 K, 548 kPa): 715.1 ± 2 kg/m3
- mass density (313.16 K, 579 kPa): 715.1 ± 2 kg/m3
- mass density (313.16 K, 595 kPa): 715.2 ± 2 kg/m3
- mass density (313.16 K, 607 kPa): 715.1 ± 2 kg/m3
- mass density (313.16 K, 620 kPa): 715 ± 2 kg/m3
- mass density (313.16 K, 631 kPa): 715.1 ± 2 kg/m3
- mass density (313.16 K, 651 kPa): 715.2 ± 2 kg/m3
- mass density (313.16 K, 661 kPa): 715.1 ± 2 kg/m3
- mass density (313.16 K, 673 kPa): 715.3 ± 2 kg/m3
- mass density (313.16 K, 686 kPa): 715.2 ± 2 kg/m3
- mass density (313.16 K, 699 kPa): 715.2 ± 2 kg/m3
- mass density (313.16 K, 719 kPa): 715.2 ± 2 kg/m3
- mass density (313.16 K, 733 kPa): 715.2 ± 2 kg/m3
